# Laboratory results taken from publication PMC8910432 (International Journal of Molecular Sciences, 2022).
# Like-named read-outs stand apart in the source and are kept apart here.
# What was measured:
# SARS-CoV-2 3CLpro = SARS-CoV-2 3CLpro (Severe acute respiratory syndrome coronavirus 2, UniProt P0DTD1); test: biochemical; type: biochemical; settings: for concentration from which inhibitory effect on 3CLpro activity is significant: tested 0.1 to 100 µM
# 3CLpro [1] = molecular target: T1, 3CLpro (Severe acute respiratory syndrome coronavirus 2, UniProt P0DTD1); settings: cited from earlier work; for binding free energy of 3CLpro: ref 66
# 3CLpro [2] = molecular target: T1, 3CLpro; test: biochemical; settings: SPR, 1:1 binding model; read-out: KD TA/3CLpro
# 3CLpro [3] = molecular target: T1, 3CLpro; type: binding; settings: TA 10 to 500 µM, 30 min
# 3CLpro [4] = molecular target: T1, 3CLpro; settings: cited from earlier work; for IC50: read-out: IC50 3CLpro
# 3CLpro [5] = molecular target: T1, 3CLpro; settings: FRET-based assay; cited from earlier work
# [6] = design: method as in PMID 12111394, PMID 16526653; settings: ref 38, 39; cited from earlier work
# mice = settings: even at high dosages; cited from earlier work
molecule,measurement,setting,value
"O=C(OC[C@H]1O[C@@H](OC(=O)c2cc(O)c(O)c(O)c2)[C@H](O)[C@@H](OC(=O)c2cc(O)c(O)c(O)c2)[C@@H]1O)c1cc(O)c(O)c(O)c1 [TGG, 1,3,6-tri-O-galloyl-β-D-glucose]",concentration from which inhibitory effect on 3CLpro activity is significant,SARS-CoV-2 3CLpro,≥ 50 µM
COc1ccc(-c2cc(=O)c3c(O)cc(O[C@@H]4O[C@H](CO[C@@H]5O[C@@H](C)[C@H](O)[C@@H](O)[C@H]5O)[C@@H](O)[C@H](O)[C@H]4O)cc3o2)cc1 [acaciin],free energy of the 3CLpro complex,3CLpro [1]; ref 67,-27.61 kcal/mol
"O=C(OC[C@H]1OC(OC(=O)c2cc(O)c(O)c(OC(=O)c3cc(O)c(O)c(O)c3)c2)[C@H](OC(=O)c2cc(O)c(O)c(OC(=O)c3cc(O)c(O)c(O)c3)c2)[C@@H](OC(=O)c2cc(O)c(O)c(OC(=O)c3cc(O)c(O)c(O)c3)c2)[C@@H]1OC(=O)c1cc(O)c(O)c(OC(=O)c2cc(O)c(O)c(O)c2)c1)c1cc(O)c(O)c(OC(=O)c2cc(O)c(O)c(O)c2)c1 (stereo partly drawn) [TA, 1,2,3,4,6-penta-O-{3,4-dihydroxy-5-((3,4,5-trihydroxybenzoyl)oxy)benzoyl}-D-glucopyranose]",reduction of 3CLpro activity,SARS-CoV-2 3CLpro; at 10 µM,up to 95%
same,IC50,SARS-CoV-2 3CLpro; this study,1000 nM
same,Kd,3CLpro [2],57.5 nM
same,TA adsorption onto 3CLpro (QCMD),3CLpro [3],TA adsorption is observed to increase with higher TA concentrations
same,IC50,3CLpro [4]; lower end of literature range,2100 nM
same,IC50,3CLpro [4],3000 nM
same,inhibition of 3CLpro activity,"3CLpro [4]; ref 35, 36, 37",100%
same,IC50,3CLpro [4]; upper end of literature range,9000 nM
same,IC50,3CLpro [5],13400 nM
same,solubility in water,[6],highly soluble
"O=C(O[C@H]1Cc2c(O)cc(O)cc2OC1c1cc(O)c(O)c2c(=O)c(O)cc(C3Oc4cc(O)cc(O)c4C[C@H]3O)cc12)c1cc(O)c(O)c(O)c1 (stereo partly drawn) [3-isotheaflavin-3-gallate, reference compound]",IC50,3CLpro [4],7000 nM
O=c1cc(-c2ccc(O)c(-c3c(O)cc(O)c4c(=O)cc(-c5ccc(O)cc5)oc34)c2)oc2cc(O)cc(O)c12 [amentoflavone],binding free energy of 3CLpro,3CLpro [1],-32.14 ± 4.73 kcal/mol
"O=C(O[C@@H]1O[C@@H]2COC(=O)c3cc(O)c(O)c(O)c3-c3c(cc(O)c(O)c3O)C(=O)O[C@H]([C@H]1O)[C@@H]2O)c1cc(O)c(O)c(O)c1 [corilagin, β-1-O-galloyl-3,6-(R)-hexahydroxydiphenoyl-D-glucose]",concentration from which inhibitory effect on 3CLpro activity is significant,SARS-CoV-2 3CLpro,≥ 50 µM
same,inhibition of 3CLpro activity,3CLpro [4]; ref 33,88%
same,toxicity in mice,mice,very low toxicity
cyanidin-3-O-glucoside,MMPBSA binding free energy with 3CLpro,3CLpro [1]; protomer A,-50.8 kcal/mol
same,MMPBSA binding free energy with 3CLpro,3CLpro [1]; protomer B,-42.1 kcal/mol
(−)-epicatechin-3-O-gallate [ECG],IC50,3CLpro [4],847 ± 5 nM
same,MMPBSA binding free energy with 3CLpro,3CLpro [1]; ref 33,-41.5 ± 5.1 kcal/mol
same,MMPBSA binding free energy with 3CLpro,3CLpro [1]; ref 68,-46.03 ± 6.48 kcal/mol
CCC(CC)COC(=O)[C@H](C)N[P@](=O)(OC[C@H]1O[C@@](C#N)(c2ccc3c(N)ncnn23)[C@H](O)[C@@H]1O)Oc1ccccc1 [remdesivir],binding free energy of 3CLpro,3CLpro [1],-26.67 ± 3.39 kcal/mol
C[C@@H]1O[C@@H](OC[C@H]2O[C@@H](Oc3c(-c4ccc(O)c(O)c4)oc4cc(O)cc(O)c4c3=O)[C@H](O)[C@@H](O)[C@@H]2O)[C@H](O)[C@H](O)[C@H]1O [rutin],binding free energy of 3CLpro,3CLpro [1],-30.96 ± 5.56 kcal/mol
